Test system: Staphylococcus aureus
Assay: In vitro inhibition of S. aureus bacterial growth, titanium cylinder functionalized with HAS2-DOPA or HA-DOPA and Gentamicin
Format: cell-based
Details: Daptomycin at the same concentrations instead of Gentamicin
Experimental: The following were prepared:
a solution of HA-DOPA (23%, Example 12) in 0.1 M PBS, pH=8; […]
Identical treatment was applied to the other two titanium cylinders, of equal size, which were sprayed first with the HA-DOPA derivative solution and then with the Gentamicin solution, by the procedures described above.
Finally, two other titanium cylinders, of identical size, were sprayed with the PBS solution and then with the Gentamicin solution, by the procedures described above.
Each cylinder (total: 6) was then immersed once in MQ water for 5 seconds, left to air-dry for 15 minutes and inserted in a culture broth (Buffered Peptone Water: peptone 10.0 g/L, sodium chloride 5.0 g/L, anhydrous disodium phosphate 3.6 g/L, potassium phosphate 1.5 g/L, Biokar Diagnostics) inoculated with 600,000,000 CFU/mL of Staphylococcus aureus. The broth was incubated at 37° C., and at pre-set times (6 h, 12 h, 24 h, 48 h, 144 h) 1 mL of supernatant was taken up and diluted scalarly 1:10 (according to the bacterial growth), with sterile saline solution, for plate seeding (PCA—Plate Count Agar: tryptone 5.0 g/L, yeast extract 2.5 g/L, glucose 1.0 g/L, bacteriological agar 12.0 g/L. Manufactured by Biokar Diagnostics). The CFU/mL count was then conducted.
The percentage bacterial growth inhibition data over time compared with the initial inoculum of 600 million CFU/mL of S. aureus are set out in FIG. 4.

## CCCCCCCCCC(=O)N[C@@H](Cc1c[nH]c2ccccc12)C(=O)N[C@H](CC(N)=O)C(=O)N[C@@H](CC(=O)O)C(=O)N[C@@H]1C(=O)NCC(=O)N[C@@H](CCCN)C(=O)N[C@@H](CC(=O)O)C(=O)N[C@H](C)C(=O)N[C@@H](CC(=O)O)C(=O)NCC(=O)N[C@H](CO)C(=O)N[C@@H]([C@H](C)CC(=O)O)C(=O)N[C@@H](CC(=O)c2ccccc2N)C(=O)O[C@@H]1C [Daptomycin]
  activity profile in similar experiment with Daptomycin: identical activity profile
